# Active and inactive are the calls of the source. The calls are words filed in the database; no cut-off is given here.
# Experiments:
# Tubulin = Tubulin (Sus scrofa, UniProt P02554+P02550); test: Induction of porcine brain tubulin polymerization after 20 mins by Bradford assay
# [1] = Stabilization of microtubule using Cy3-streptavidin-tagged compound by fluorescence microscopy
# [2] = Stabilization of microtubule by fluorescence microscopy
EC50 (Tubulin),Activity [1],Activity [2],Structure (SMILES)
680 nM,Active,Active,CC(=O)O[C@H]1C(=O)[C@]2(C)[C@@H](OC(=O)CCNC(=O)CCCCCNC(=O)CCCCCNC(=O)CCCC[C@@H]3SC[C@@H]4NC(=O)N[C@@H]43)C[C@H]3OC[C@@]3(OC(C)=O)[C@H]2[C@H](OC(=O)c2ccccc2)[C@]2(O)C[C@H](OC(=O)[C@H](O)[C@@H](NC(=O)c3ccccc3)c3ccccc3)C(C)=C1C2(C)C
520 nM,–,Active,CC(=O)O[C@H]1C(=O)[C@@]2(C)[C@H]([C@H](OC(=O)c3ccccc3)[C@]3(O)C[C@H](OC(=O)[C@H](O)[C@@H](NC(=O)c4ccccc4)c4ccccc4)C(C)=C1C3(C)C)[C@]1(OC(C)=O)CO[C@@H]1C[C@@H]2O [PACLITAXEL]
